Results taken from patent US20230338532A1, “IMMUNOSUPPRESSANT DRUG RESISTANT ARMORED TCR T CELLS FOR IMMUNE-THERAPY OF ORGAN TRANSPLANT PATIENTS” (priority 2020, published 2023).

Tests used:
Type in all cases: cell-based, human
HepG2.2.15 cells [1] = experiment: T cell cytolysis by impedance measurement (real time killing assay); details: clinically relevant doses, FIG. 1B
Description: (§1) FIGS. 1A and 1B show functional profiles of 5183-electroporated T cells treated with tacrolimus. Cytokine production (TNF-α as a representative) of drug-treated S183 TCR-T cells was evaluated following overnight co-culture with HepG2.215 cells. FIG. 1A: Concatenated dot plots (left panel) from representative experiments stained for TNF-α production. […] Non-treated electroporated T cells used as negative control. FIG. 1B: Drug effect on T cell cytolysis determined through impedance measurement. The Normalized Cell Index plot was converted to an area under the curve, and quantified to measure the percentage of cytolysis ˜45 hours after S183-TCR T cell addition. Each dot represents one individual experiment in bar graphs. Statistical significance was evaluated by 2-tailed t test. […]
FIGS. 6A, 6B and 6C show dual-resistant TCR-redirected T cells were produced by electroporating 3 mRNAs (HBV TCR, CnB mutant and IMPDH mutant) into the T cells. FIG. 6A: Frequency of TNF-α-producing CD8+ cells out of total live CD8 T cells was quantified following overnight incubation with the targets (n=3). […] FIG. 6B: T cell cytolysis determined by real time killing assay in the presence and absence of both drugs. […] FIG. 6C: Viability of dual resistant TCR-T cells evaluated 72 hours after exposure to clinically relevant concentration of both drugs.

HepG2.2.15 cells [2] = experiment: TNF-α production of TCR T cells after overnight co-culture with HepG2.2.15 cells; details: clinically relevant concentration
Description: as §1, with “Each dot represents one individual experiment in bar graphs.” left out
FIG. 3A: S183 TCR and mutant CnB m-RNA were co-electroporated and T cell function was evaluated following overnight co-culture with HepG2.2.15 cells. FIG. 3B: Viability and TCR expression of engineered T cells evaluated 24 hours post-electroporation. […] FIG. 3C: Frequency of TNF-α-producing CD8+ cells out of total live CD8+ T cells were quantified following overnight incubation with the targets (n=3). […]
FIG. 5A: Sequence information of siRNA specific for FKBP1A. FIG. 5B: Frequency of TNF-α-producing CD8+ cells out of total live CD8+ T cells were quantified following overnight incubation with the targets and different concentrations of Tacrolimus (n=3). […]

T cells = experiment: Viability of engineered T cells exposed to immunosuppressants; details: clinically relevant concentration, 48 hours exposure
Description: Intracellular cytokine staining and viability analysis were performed at the indicated time after treatment.

Row | SMILES | loss of cytolytic activity of treated T cells (HepG2.2.15 cells [1]) | effect on T cell TNF-α production (HepG2.2.15 cells [2]; 12 hours incubation with HepG2.2.15 cells) | effect on viability of modified TCR-T cells (T cells) | effect on T cell function and killing (HepG2.2.15 cells [2])
1 | C=CC[C@@H]1/C=C(\C)C[C@H](C)C[C@H](OC)[C@H]2O[C@@](O)(C(=O)C(=O)N3CCCC[C@H]3C(=O)O[C@H](/C(C)=C/[C@@H]3CC[C@@H](O)[C@H](OC)C3)[C@H](C)[C@@H](O)CC1=O)[C@H](C)C[C@@H]2OC [Tacrolimus] | ≤ 50 % of the non-treated control | can impair T cell TNF-α production |  | 
2 | COc1c(C)c2c(c(O)c1C/C=C(\C)CCC(=O)OCCN1CCOCC1)C(=O)OC2 [MMF, Mycophenolate mofetil] |  |  | markedly decreases the viability | does not impair T cell function and killing
